In a melting point compilation (Tetko et al.; mined from patent text by program, amines drawn as free bases though some values may be those of a salt):

Row | SMILES | melting point [°C]
1 | CCOC(=O)CCCCCOc1cc(C=CC2=C(C#N)C(=C(C#N)C#N)OC2(C)C)ccc1N | 164
2 | CNc1cc(Nc2ccc(OC)cc2)ncn1 | 174 to 182
3 | CP(C)(=O)CNc1cc(Oc2ncc(Cl)cc2Cl)ccc1[N+](=O)[O-] | 153 to 155
4 | CC(C)c1ccc(CN(C(=N)N)c2ccc3c4c(cccc24)CC3)cc1 | 153 to 155
5 | CC1(C)NC(=O)N(CC(CS(=O)(=O)c2ccc(-c3ccc(OC(F)(F)F)cc3)cc2)N(O)C=O)C1=O (stereo not drawn) | 195 to 197
6 | O=C(c1ccccc1)C1OC1c1ccccc1Cl (stereo not drawn) | 132
7 | COc1cccc2c(CCCN(CC3CC3)C3COc4c(F)ccc(C(N)=O)c4C3)coc12 (stereo not drawn) | 125 to 132
8 | C=CCNc1cnc(-c2ccccc2)c(-c2ccccc2)n1 | 97 to 100
9 | O=CNC1CCc2c([nH]c3ccccc23)C1 (stereo not drawn) | 123 to 126
10 | CS(=O)(=O)c1ccc(-c2cnn(CC(F)(F)F)c(=O)c2OCCN2CCCCC2)cc1 | 117 to 118
11 | CC(=O)C=Cc1c(Cl)nc(C)c2c1CCCC2 | 90
12 | CCOC(=O)c1cnc(-c2ccccc2)nc1Nc1ccccc1N | 154 to 156
13 | C#CCCCCOc1cc(C=O)ccc1OC | 66 to 67
14 | CC(=O)OCc1ccc(C(=O)O)cc1 | 120 to 123
15 | CC(c1ccc(Cl)cc1)N1C(=O)CC(Br)C1=O (stereo not drawn) | 96
16 | CCCCNC(=O)c1ccc(F)c2c1CC(N(CCCc1c[nH]c3ccc(F)cc13)C1CCC1)CO2 (stereo not drawn) | 106
17 | Cc1nn(-c2ccc(O)cc2F)c(=O)n1C(F)F | 112 to 114
18 | CC(C)OC(=O)NCc1cccc(-c2ccccc2)c1 | 61 to 64
19 | Cc1ccccc1-c1cc(O)ccc1O | 65 to 68
20 | CC1Cc2cc(S(=O)(=O)n3cc(-c4ccccc4)[nH]c3=O)ccc2N1C(=O)c1ccc([N+](=O)[O-])cc1 (stereo not drawn) | 168 to 172
21 | CCOC(=O)c1cn(C(C)F)c2cc(-n3cccc3)c(F)cc2c1=O (stereo not drawn) | 231 to 234
22 | O=[N+]([O-])c1cc([N+](=O)[O-])c2ccccc2c1Nc1ccc(OC(F)(F)F)c(Cl)c1 | 140
23 | O=C1CN(c2ccc(Oc3ccccc3)cc2)C(=S)N1c1ccc([N+](=O)[O-])cc1 | 204
24 | Nc1c(N=O)c(=O)n(CCC2=CCCCC2)c(=O)n1CCC1=CCCCC1 | 220 to 222

Other lines, results leading:

Row | melting point [°C] | SMILES
25 | 68 to 70 | CC1(C)OCc2cc(C(O)CNCCCCCCOCCCCc3ccccc3)ccc2O1 (stereo not drawn)
26 | 210 to 211 | CC(C)C(C(=O)O[C@H]1C[C@H](O)C=C2C=C[C@H](C)[C@H](CC[C@@H]3C[C@@H](O)CC(=O)O3)[C@H]21)C(C)C
27 | 155 to 156 | CCSC(C)(C)C(=O)C(C(=O)Nc1cc(NC(=O)CCCOc2ccc(C(C)(C)CC)cc2C(C)(C)CC)ccc1OC)N1C(=O)OC(C)(C)C1=O (stereo not drawn)
28 | 66 to 68 | Cc1cc(OCCC[Si](C)(C)C)c(Cl)cc1[N+](=O)[O-]
29 | 148 to 150 | O=C(C1Oc2ccccc2OC1c1ccccc1)N1CCOCC1 (stereo not drawn)
30 | 140 to 141 | CCOC(=O)C(C#N)=CNc1cccc(I)c1
31 | 141 to 143 | CC(C)c1ccc(OC(C)(Cc2ccc(OCCNC(=O)c3ccc(-c4ccccn4)cc3)cc2)C(=O)O)cc1 (stereo not drawn)
32 | 118 to 119 | Cc1nc(Cc2ccc([N+](=O)[O-])cc2)cs1
33 | 70 | O=c1c2c(cnn1Cc1ccccc1)C(Cc1ccccc1)NCCO2 (stereo not drawn)
34 | 138 to 140 | COc1cc(OC)cc(-c2oc3ncnc(Cl)c3c2-c2ccccc2)c1
35 | 45 to 46.5 | CC(C)(C)[Si](C)(C)Oc1cc(Cl)cc(C(=O)C(F)(F)F)c1N
36 | 136 to 137 | CN1CCOC(CC23CC(c4ccccc42)c2ccccc23)C1 (stereo not drawn)
37 | 136 | COc1ccc(C(=O)CCCN2CCC(OC(=O)c3cc(Cl)c(N)c4c3OCC4)CC2)cc1
38 | 171 to 172 | CCOP(=O)(OCC)C(O)c1ccc(NC(=O)CCc2oc(-n3cnc4ccccc43)nc2-c2ccc(Cl)cc2)cc1 (stereo not drawn)
